Laboratory results from ChEMBL document CHEMBL1201862, “PubChem BioAssay data set” (2004).
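Five compound concentrations were applied to cells in 96-well plates for 48 hours; endpoints were derived by simple linear interpolation of the resulting dose-response curve. GI50: concentration for 50% inhibition of growth.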 Calls of active or inactive are those of the source. Cut-off read from the data, not from the text of the source: active = GI50 up to about 1.1 µM and inactive = higher.

Legend:
Test in all cases: NCI anticancer screen, dose series, 48 h
[1] = tested on: DMS-273
[2] = tested on: DLD-1
[3] = tested on: DMS-114
[4] = tested on: M19-MEL
[5] = tested on: XF498
[6] = tested on: LXFL 529
[7] = tested on: HOP-18
[8] = tested on: SNB-78
[9] = tested on: RXF 631

Cc1cc(N(CCC#N)CCC#N)ccc1/C=C1/N=C(c2ccccc2)N(N)C1=O
GI50 [1]: 89.1 µM (inactive) | GI50 [2]: > 100 µM (inactive) | GI50 [3]: 75 µM (inactive) | GI50 [4]: > 100 µM (inactive) | GI50 [5]: > 100 µM (inactive) | GI50 [6]: > 100 µM (inactive)

CCN(CC)CCCNC(=O)C1COc2cc(-c3cc(=O)c4ccccc4o3)ccc2O1 (centres undefined)
GI50 [1]: 65.5 µM (inactive) | GI50 [7]: > 100 µM (inactive) | GI50 [2]: 65.3 µM (inactive) | GI50 [3]: 25.4 µM (inactive) | GI50 [8]: > 100 µM (inactive) | GI50 [9]: 34.4 µM (inactive) | GI50 [4]: 20.9 µM (inactive) | GI50 [6]: 53 µM (inactive)

O=C(O)/C(Cl)=C(\Cl)C(=O)c1ccccc1
GI50 [1]: > 100 µM (inactive) | GI50 [2]: > 100 µM (inactive) | GI50 [3]: > 100 µM (inactive) | GI50 [8]: > 100 µM (inactive) | GI50 [4]: > 100 µM (inactive) | GI50 [5]: > 100 µM (inactive) | GI50 [6]: > 100 µM (inactive)

Cc1ccc([N+](=O)[O-])cc1NC(=O)C(=O)Cc1occc(=O)c1O
GI50 [7]: > 100 µM (inactive) | GI50 [2]: > 100 µM (inactive) | GI50 [3]: > 100 µM (inactive) | GI50 [4]: > 100 µM (inactive) | GI50 [5]: > 100 µM (inactive)

C1=Nc2ccccc2Cn2nncc21
GI50 [1]: > 10 µM (inactive) | GI50 [7]: 74.8 µM (inactive) | GI50 [2]: 57.3 µM (inactive) | GI50 [4]: > 100 µM (inactive) | GI50 [5]: > 100 µM (inactive) | GI50 [6]: 98.2 µM (inactive)

CC(C)c1cccc2sc(NC(=O)C(=O)CC(=O)c3ccc(F)cc3)nc12
GI50 [1]: > 100 µM (inactive) | GI50 [2]: > 100 µM (inactive) | GI50 [3]: > 100 µM (inactive) | GI50 [8]: > 100 µM (inactive) | GI50 [9]: > 100 µM (inactive) | GI50 [4]: > 100 µM (inactive) | GI50 [5]: > 100 µM (inactive) | GI50 [6]: > 100 µM (inactive)

CC1=C(C(=O)NCc2ccccc2)C(c2ccc(C3C(C(=O)NCc4ccccc4)=C(C)NC(C)=C3C(=O)NCc3ccccc3)cc2)C(C(=O)NCc2ccccc2)=C(C)N1
GI50 [1]: 9.42 µM (inactive) | GI50 [7]: 37.5 µM (inactive) | GI50 [2]: 3.44 µM (inactive) | GI50 [3]: 12.6 µM (inactive) | GI50 [8]: 9.46 µM (inactive) | GI50 [4]: 8.39 µM (inactive) | GI50 [5]: 14.9 µM (inactive) | GI50 [6]: 4.58 µM (inactive)

CC(Oc1ccc(OCC2CCCCC2)cc1)C(=O)N(CCO)CCO (centres undefined)
GI50 [1]: > 100 µM (inactive) | GI50 [7]: > 100 µM (inactive) | GI50 [3]: > 100 µM (inactive) | GI50 [8]: > 100 µM (inactive) | GI50 [4]: > 100 µM (inactive) | GI50 [5]: > 100 µM (inactive) | GI50 [6]: > 100 µM (inactive)

CCCCC1(C2c3ccccc3Oc3ccccc32)C(=O)N(c2ccccc2)N(c2ccccc2)C1=O
GI50 [1]: 47 µM (inactive) | GI50 [7]: > 100 µM (inactive) | GI50 [2]: 25.8 µM (inactive) | GI50 [8]: 37.1 µM (inactive) | GI50 [4]: > 100 µM (inactive) | GI50 [5]: > 31.9 µM (inactive)

CC(C)(C)OC(=O)NC(Cc1ccccc1)C(=S)N1CCCC1 (centres undefined)
GI50 [1]: > 79.3 µM (inactive) | GI50 [7]: > 100 µM (inactive) | GI50 [2]: 62.4 µM (inactive) | GI50 [3]: 65.5 µM (inactive) | GI50 [8]: > 100 µM (inactive) | GI50 [9]: > 100 µM (inactive) | GI50 [4]: > 100 µM (inactive) | GI50 [5]: > 100 µM (inactive) | GI50 [6]: > 90.4 µM (inactive)

NCCCNCCSP(=O)(O)O [AMIFOSTINE]
GI50 [1]: > 750 µM (inactive) | GI50 [7]: > 750 µM (inactive) | GI50 [2]: > 750 µM (inactive) | GI50 [3]: > 750 µM (inactive) | GI50 [8]: > 750 µM (inactive) | GI50 [4]: 514 µM (inactive) | GI50 [5]: > 422 µM (inactive)

Cn1c(/C=C/CO)c(CO)c2c1C(=O)C=C(N1CC1)C2=O [APAZIQUONE]
GI50 [1]: < 0.01 µM (active) | GI50 [7]: < 0.01 µM (active) | GI50 [2]: 0.0152 µM (active) | GI50 [3]: < 0.01 µM (active) | GI50 [8]: 0.2 µM (active) | GI50 [4]: < 0.01 µM (active) | GI50 [5]: < 0.01 µM (active)
